Where two headings read alike, the source gives them in different places.
How the values were obtained:
[1] = molecular target: T1, Ba/F3-FL-EGFR-V769-D770 ins ASV (Homo sapiens, UniProt P00533, DUP767-769, cells depend on it); assay: Cell proliferation inhibitory activity test (CellTiter-Glo), EGFR exon 20 insertion mutation; type: cell-based; details: 72 h, read-out: Ba/F3-FL-EGFR IC50 (nM) V769-D770ins ASV
T1 construct: Ba/F3-FL-EGFR IC50 (nM) V769-D770ins ASV; other: 72 h; class symbols; Ba/F3-FL-EGFR IC50 (nM) V769-D770ins ASV

[2] = molecular target: Ba/F3-FL-EGFR-D77-N771 ins SVD (Homo sapiens, UniProt P00533, DUP768-770, cells depend on it); assay: as above; type: cell-based; details: 72 h, read-out: Ba/F3-FL-EGFR IC50 (nM) D77-N771ins SVD
[3] = molecular target: Ba/F3-FL-EGFR-H773-V774 ins NPH (Homo sapiens, UniProt P00533, DUP771-773, cells depend on it); assay: as above; type: cell-based; details: 72 h, read-out: Ba/F3-FL-EGFR IC50 (nM) H773-V774ins NPH
[4] = molecular target: Ba/F3-FL-EGFR-A763-Y764 ins FQEA (Homo sapiens, UniProt P00533, INS763FQEA, cells depend on it); assay: as above; type: cell-based; details: 72 h, read-out: Ba/F3-FL-EGFR IC50 (nM) A763-Y764ins FQEA
[5] = molecular target: EGFR exon 20 insertion mutant kinase A763_Y764insFHEA (Homo sapiens, UniProt P00533, INS763FHEA); assay: Kinase activity assay (33P-ATP filter-binding), EGFR exon 20 insertion mutant kinase A763_Y764insFHEA; type: biochemical; details: for IC50: ATP Km concentration, 10 concentrations
[6] = molecular target: EGFR exon 20 insertion mutant kinase D770-N771insNPG (Homo sapiens, UniProt P00533, INS770NPG); assay: Kinase activity assay (33P-ATP filter-binding), EGFR exon 20 insertion mutant kinase D770-N771insNPG; type: biochemical; details: ATP Km concentration; 10 concentrations
[7] = tested on: H-1975 (EGFRL858R/T790M) cells; assay: Cell proliferation inhibitory activity test (WST-8) of related EGFR mutations; type: cell-based; details: Homo sapiens, read-out: IC 50 (nM) H-1975 (EGFRL858/T790M)
PC9 (EGFRdel19) cells = assay: as above; type: cell-based; details: 72 h, cell viability; read-out: IC 50 (nM) PC-9 (EGFRdel19)
[8] = molecular target: Ba/F3 (EGFRdel19/L858R/C797S) (Homo sapiens, UniProt P00533, C797S/L858R, cells depend on it, form not given); assay: as above; type: cell-based; details: 72 h, cell viability; read-out: IC 50 (nM) Ba/F3 (EGFRdel19/L858/797s)

| GI50 ([1]; class symbols) [nM] | GI50 ([2]; class symbols) [nM] | GI50 ([3]; class symbols) [nM] | GI50 ([4]; class symbols) [nM] | IC50 [6] [nM] | Compound | further results |
| --- | --- | --- | --- | --- | --- | --- |
| < 5 |  |  |  |  | C=CC(=O)Nc1cc(Nc2ncc(C(=O)OC(C)C)c(-c3cn(C)c4ccccc34)n2)c(OC)cc1N(C)C1(CN(C)C)CC1 [Example 42] |  |
|  |  |  |  | 0.731 | C=CC(=O)Nc1cc(Nc2ncc(C(=O)OC(C)C)c(-c3cn(C)c4ccccc34)n2)c(OC)cc1N(C)CCN(C)C [TAK788, reference compound] | IC50 [5]: 4.19 nM; GI50 [1]: 4 nM; GI50 [2]: 3.9 nM; GI50 [3]: 3.6 nM; GI50 [4]: 3.3 nM; IC50 ([7]; NCI-H1975, 72 h, cell viability): 101 nM; IC50 (PC9 (EGFRdel19) cells): 24.1 nM; GI50 [8]: 2630 nM |
|  |  |  |  | 1.38 | C=CC(=O)Nc1cc(Nc2ncc(C(=O)OC(C)C)c(-n3ncc4c3Cc3ccccc3-4)n2)c(OC)cc1N(C)CCN(C)C [Example 6] | IC50 [5]: 9 nM |
|  |  |  |  | 0.3 | C=CC(=O)Nc1cc(Nc2ncc(C(=O)OC(C)C)c(-n3cc4c(n3)-c3ccccc3C4)n2)c(OC)cc1N(C)CCN(C)C [Example 12] | IC50 [5]: 2.27 nM; activity relative to the compound with the optimal activity disclosed in WO2015195228A1 (TAK788) ([5]; EGFR exon 20 insertion mutant kinases of Table 4): 2 to 3 times |
|  |  |  |  | 169 | C=CC(=O)Nc1cc(Nc2nccc(-n3ncc4c3-c3ccccc3C4)n2)c(OC)cc1N(C)CCN(C)C [Example 13] | IC50 [5]: 61.1 nM |
| < 5 | < 5 | < 5 | < 5 |  | C=CC(=O)Nc1cc(Nc2ncc(C(=O)OC(C)C)c(-c3cn(C)c4ccccc34)n2)c(OC)cc1N(C)CC1(N(C)C)CC1 [Example 41] |  |
|  |  |  |  | 1190 | C=CC(=O)Nc1cc(Nc2ncc(C(=O)OC(C)C)c(-n3cc4c(n3)Cc3ccccc3-4)n2)c(OC)cc1N(C)CCN(C)C [Example 7] | IC50 [5]: 5600 nM |
|  |  |  |  | 7360 | C=CC(=O)Nc1cc(Nc2ncc(C(=O)OC(C)C)c(-n3ncc4c3-c3ccccc3C4)n2)c(OC)cc1N(C)CCN(C)C [Example 11] |  |
|  |  |  |  | 1.83 | C=CC(=O)Nc1cc(Nc2ncc(C(=O)N(C)S(C)(=O)=O)c(-c3cn(C)c4ccccc34)n2)c(OC)cc1N(C)CCN(C)C [Example 9] | IC50 [5]: 10.4 nM |
|  |  |  |  | 10.1 | C=CC(=O)Nc1cc(Nc2ncc(C(=O)OC(C)C)c(-c3nn(C)c4c3Cc3ccccc3-4)n2)c(OC)cc1N(C)CCN(C)C [Example 14] | IC50 [5]: 44.6 nM |

The remaining lines, values behind:

| Compound | GI50 ([1]; class symbols) [nM] | GI50 ([2]; class symbols) [nM] | GI50 ([3]; class symbols) [nM] | GI50 ([4]; class symbols) [nM] | IC50 [6] [nM] | further results |
| --- | --- | --- | --- | --- | --- | --- |
| [2H]C([2H])([2H])n1cc(-c2nc(Nc3cc(NC(=O)C=C)c(N(C)CCN(C)C)cc3OC)ncc2-c2nnc(C)o2)c2ccccc21 [Example 24] | < 5 | < 5 | < 5 | < 5 |  |  |
| C=C(F)C(=O)Nc1cc(Nc2ncc(-c3nnc(C)o3)c(-c3cn(C)c4ccccc34)n2)c(OC)cc1N(C)[C@H]1[C@@H]2CN(C)C[C@@H]21 [Example 34] | < 5 | < 5 | 5 to 50 | < 5 |  |  |
| C=CC(=O)Nc1cc(Nc2ncc(-c3nnc(C(F)F)s3)c(-c3cn(C)c4ccccc34)n2)c(OC)cc1N(C)CCN(C)C [Example 29] | 5 to 50 | < 5 | 5 to 50 | < 5 |  |  |
| C=CC(=O)Nc1cc(Nc2ncc(-c3nnc(C)o3)c(-c3cn(C)c4ccccc34)n2)c(OC)cc1N(C)CC1(N(C)C)CC1 [Example 23] | < 5 | < 5 | < 5 | < 5 |  |  |
| C=CC(=O)Nc1cc(Nc2ncc(-c3nnc(CC)o3)c(-c3cn(C)c4ccccc34)n2)c(OC)cc1N(C)CCN(C)C [Example 33] | < 5 | < 5 | < 5 | < 5 |  |  |
| C=CC(=O)Nc1cc(Nc2ncc(-c3nnc(C)o3)c(-c3cn(C4CC4)c4ccccc34)n2)c(OCC(F)(F)F)nc1N(C)CCN(C)C [Example 4] |  |  |  |  | 2.79 | IC50 [5]: 15.3 nM |
| C=CC(=O)Nc1cc(Nc2ncc(-c3nnc(C)s3)c(-c3cn(C)c4ccccc34)n2)c(OC)cc1N(C)CCN(C)C [Example 25] | < 5 | 5 to 50 | 5 to 50 | < 5 |  |  |
| C=CC(=O)Nc1cc(Nc2ncc(C3=NOC(C)(C)N3)c(-c3cn(C)c4ccccc34)n2)c(OC)cc1N(C)CCN(C)C [Example 19] | > 50 |  |  |  |  |  |
| C=CC(=O)Nc1cc(Nc2ncc(-c3nnco3)c(-c3cn(C)c4ccccc34)n2)c(OC)cc1N(C)CCN(C)C [Example 21] | < 5 |  |  |  |  |  |
| C=CC(=O)Nc1cc(Nc2ncc(C(=O)OC(C)C)c(-c3cn(C)c4ccccc34)n2)c(OC)cc1N(C)[C@H]1[C@@H]2CN(C)C[C@@H]21 [Example 40] | < 5 | < 5 | < 5 | < 5 |  |  |
| [2H]C([2H])([2H])n1cc(-c2nc(Nc3cc(NC(=O)C=C)c(N(C)[C@H]4[C@@H]5CN(C)C[C@@H]54)cc3OC)ncc2C(=O)OC(C)C)c2ccccc21 [Example 47] | < 5 | < 5 | < 5 | < 5 |  |  |
| [2H]C([2H])([2H])n1cc(-c2nc(Nc3cc(NC(=O)C=C)c(N(C)CCN(C)C)nc3OCC(F)(F)F)ncc2-c2nnc(C)o2)c2ccccc21 [Example 3] |  |  |  |  | 1.48 | IC50 [5]: 6.07 nM |
| C=CC(=O)Nc1cc(Nc2ncc(-c3nnc(C)o3)c(-c3cn(C)c4ccccc34)n2)c(OC)cc1N(C)C1CCN(C)CC1 [Example 32] | 5 to 50 |  |  |  |  |  |
| C=CC(=O)Nc1cc(Nc2ncc(-c3nnc(C)o3)c(-c3c[nH]c4ccccc34)n2)c(OC)cc1N(C)CCN(C)C [Example 26] | < 5 | < 5 | < 5 | < 5 |  |  |
| C=C(F)C(=O)Nc1cc(Nc2ncc(-c3nnc(C)o3)c(-c3cn(C)c4ccccc34)n2)c(OC)cc1N(C)CCN(C)C [Example 27] | 5 to 50 |  |  |  |  |  |
| [2H]C([2H])([2H])n1cc(-c2nc(Nc3cc(NC(=O)C=C)c(N(C)CCN(C)C)nc3OCC(F)(F)F)ncc2CO)c2ccccc21 [Example 10] |  |  |  |  | 7.66 | IC50 [5]: 36.4 nM |
| C=CC(=O)Nc1cc(Nc2ncc(C3=NOC(C)(C)O3)c(-c3cn(C)c4ccccc34)n2)c(OC)cc1N(C)CCN(C)C [Example 20] | > 50 |  |  |  |  |  |
| C=CC(=O)Nc1cc(Nc2ncc(C(=O)OC(C)C)c(-c3cn(C)c4ccccc34)n2)c(OC)cc1N(C)[C@H]1C[C@@H]2CN(C)C[C@@H]2C1 [Example 43] | < 5 |  |  |  |  |  |
| C=CC(=O)Nc1cc(Nc2ncc(C(=O)OC(C)C)c(-c3cn(C)c4ccccc34)n2)c(OC)cc1N1C[C@H]2CN(C)C[C@H]2C1 [Example 36] | < 5 | < 5 | < 5 | < 5 |  |  |
| C=CC(=O)Nc1cc(Nc2ncc(-c3nnc(C)o3)c(-c3cn(C)c4ccccc34)n2)c(OC)cc1N(C)C1(CN(C)C)CC1 [Example 22] | < 5 |  |  |  |  |  |
| C=CC(=O)Nc1cc(Nc2ncc(-c3nnc(C)o3)c(-c3cn(C)c4ccccc34)n2)c(OC)cc1N1C[C@H]2CN(C)C[C@H]2C1 [Example 28] | > 50 |  |  |  |  |  |
| C=CC(=O)Nc1cc(Nc2ncc(-c3nnc(C(C)C)o3)c(-c3cn(C)c4ccccc34)n2)c(OC)cc1N(C)CCN(C)C [Example 31] | < 5 |  |  |  |  |  |
| C=CC(=O)Nc1cc(Nc2nccc(-c3cn(C)c4ccccc34)n2)c(OC)cc1N(C)CCN(C)C [AZD-9291, osimertinib, reference compound] |  |  |  |  |  | IC50 ([7]; NCI-H1975, 72 h): 20.2 nM; IC50 (PC9 (EGFRdel19) cells): 7.85 nM |
| C=CC(=O)Nc1cc(Nc2ncc(-c3nnc(C)o3)c(-c3cn(C)c4ccccc34)n2)c(OC)cc1N(C)C1CC2(C1)CN(C)C2 [Example 30] | > 50 |  |  |  |  |  |

From US12509441B2, “Compounds used as kinase inhibitors and application thereof” (TYK MEDICINES (ZHENGZHOU), INC., priority 2020, dated 2025)
